Measurements taken from ChEMBL document CHEMBL1201862, “PubChem BioAssay data set” (2004).
One block for each molecule: values may come before it. Calls of active or inactive are those of the source.

How the values were obtained:
Type in all cases: functional
[1] = target: 5-hydroxytryptamine receptor 5A (Homo sapiens, UniProt P47898); assay: Counterscreen for agonists of OPRM1-OPRD1 heterodimerization: luminescence-based cell-based high throughput dose response assay to identify agonists of 5-hydroxytryptamine (serotonin) 5A receptor (HTR5A). [Related pubchem assays (depositor defined):AID504326, AID504355, AID504692, AID504904, AID504905]
Chain of 5-hydroxytryptamine receptor 5A (P47898 whole entry): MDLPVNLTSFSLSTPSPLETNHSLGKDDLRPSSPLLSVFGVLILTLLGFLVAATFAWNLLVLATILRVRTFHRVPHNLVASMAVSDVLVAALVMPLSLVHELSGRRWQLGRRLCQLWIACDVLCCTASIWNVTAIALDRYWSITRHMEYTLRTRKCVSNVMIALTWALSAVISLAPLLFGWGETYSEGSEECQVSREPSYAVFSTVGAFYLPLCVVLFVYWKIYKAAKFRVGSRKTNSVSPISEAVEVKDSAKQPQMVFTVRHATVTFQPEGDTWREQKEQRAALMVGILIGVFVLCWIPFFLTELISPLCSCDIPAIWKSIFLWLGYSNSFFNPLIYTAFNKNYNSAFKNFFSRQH

[2] = target: Delta-type opioid receptor (Homo sapiens, UniProt P41143); assay: Counterscreen for agonists of heterodimerization of the mu 1 (OPRM1) and delta 1 (OPRD1) opioid receptors: Luminescence-based cell-based high throughput dose response assay to identify agonists of OPRD1 homodimerization. [Related pubchem assays (depositor defined):AID504326, AID504355, AID504692, AID504904, AID504905]
Chain of Delta-type opioid receptor (P41143 whole entry): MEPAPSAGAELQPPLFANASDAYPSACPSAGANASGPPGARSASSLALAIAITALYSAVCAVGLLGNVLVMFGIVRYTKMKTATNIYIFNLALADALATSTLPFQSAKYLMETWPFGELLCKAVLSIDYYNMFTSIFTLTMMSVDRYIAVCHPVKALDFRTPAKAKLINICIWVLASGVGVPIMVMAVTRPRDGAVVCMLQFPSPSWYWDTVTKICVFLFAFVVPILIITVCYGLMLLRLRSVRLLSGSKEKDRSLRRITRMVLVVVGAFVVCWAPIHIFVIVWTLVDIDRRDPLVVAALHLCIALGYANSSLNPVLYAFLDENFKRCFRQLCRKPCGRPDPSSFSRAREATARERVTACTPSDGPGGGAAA

[3] = MC4R antagonists, dose response, counter-screen for LGR2 antagonist project, cell-based, plate reader, cherry pick (AID 743444);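 further: transfected HEK 293 cells stimulated with alpha-MSH peptide; potency of inhibitors of the alpha-MSH evoked signal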
[4] = target: T1, Apoptotic protease-activating factor 1 (Homo sapiens, UniProt O14727)
T1 sequence (O14727 whole entry): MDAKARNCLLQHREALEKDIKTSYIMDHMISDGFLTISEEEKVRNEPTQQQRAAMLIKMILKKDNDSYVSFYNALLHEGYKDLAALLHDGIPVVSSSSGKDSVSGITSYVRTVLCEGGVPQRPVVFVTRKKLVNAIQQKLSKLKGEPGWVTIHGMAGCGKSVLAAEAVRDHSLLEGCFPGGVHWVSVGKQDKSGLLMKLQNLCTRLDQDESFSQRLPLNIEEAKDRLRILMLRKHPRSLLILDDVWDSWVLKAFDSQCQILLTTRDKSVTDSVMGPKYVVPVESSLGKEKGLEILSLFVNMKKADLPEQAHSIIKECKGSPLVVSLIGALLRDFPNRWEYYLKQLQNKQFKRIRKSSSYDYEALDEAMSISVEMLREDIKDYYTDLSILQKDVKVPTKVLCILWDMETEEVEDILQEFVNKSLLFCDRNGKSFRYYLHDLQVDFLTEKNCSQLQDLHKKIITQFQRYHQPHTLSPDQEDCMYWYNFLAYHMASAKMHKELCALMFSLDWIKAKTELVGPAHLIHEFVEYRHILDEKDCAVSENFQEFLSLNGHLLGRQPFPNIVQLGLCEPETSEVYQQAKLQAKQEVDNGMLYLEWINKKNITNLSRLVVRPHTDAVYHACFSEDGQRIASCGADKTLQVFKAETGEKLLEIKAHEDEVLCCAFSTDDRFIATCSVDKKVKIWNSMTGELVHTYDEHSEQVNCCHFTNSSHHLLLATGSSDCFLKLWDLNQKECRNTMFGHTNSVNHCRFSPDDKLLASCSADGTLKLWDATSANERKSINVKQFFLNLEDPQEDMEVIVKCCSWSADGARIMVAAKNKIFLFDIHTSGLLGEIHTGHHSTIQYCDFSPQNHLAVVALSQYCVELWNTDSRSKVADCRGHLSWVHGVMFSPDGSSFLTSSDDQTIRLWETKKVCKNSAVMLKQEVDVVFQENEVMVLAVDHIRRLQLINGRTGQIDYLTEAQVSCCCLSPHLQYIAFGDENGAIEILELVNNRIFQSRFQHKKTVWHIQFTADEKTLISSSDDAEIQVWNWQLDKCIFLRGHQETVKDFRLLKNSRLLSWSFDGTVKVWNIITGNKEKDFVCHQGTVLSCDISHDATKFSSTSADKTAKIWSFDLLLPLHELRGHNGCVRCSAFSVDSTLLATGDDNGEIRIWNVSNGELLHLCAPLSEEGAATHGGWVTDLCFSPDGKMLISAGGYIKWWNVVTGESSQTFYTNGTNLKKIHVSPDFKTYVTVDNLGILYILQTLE

Ephrin type-A receptor 2 = Ephrin type-A receptor 2 (Homo sapiens, UniProt P29317);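 further: EPHA2 tested as one member of a kinome-wide kinase panel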
Chain of Ephrin type-A receptor 2 (P29317 whole entry, canonical isoform): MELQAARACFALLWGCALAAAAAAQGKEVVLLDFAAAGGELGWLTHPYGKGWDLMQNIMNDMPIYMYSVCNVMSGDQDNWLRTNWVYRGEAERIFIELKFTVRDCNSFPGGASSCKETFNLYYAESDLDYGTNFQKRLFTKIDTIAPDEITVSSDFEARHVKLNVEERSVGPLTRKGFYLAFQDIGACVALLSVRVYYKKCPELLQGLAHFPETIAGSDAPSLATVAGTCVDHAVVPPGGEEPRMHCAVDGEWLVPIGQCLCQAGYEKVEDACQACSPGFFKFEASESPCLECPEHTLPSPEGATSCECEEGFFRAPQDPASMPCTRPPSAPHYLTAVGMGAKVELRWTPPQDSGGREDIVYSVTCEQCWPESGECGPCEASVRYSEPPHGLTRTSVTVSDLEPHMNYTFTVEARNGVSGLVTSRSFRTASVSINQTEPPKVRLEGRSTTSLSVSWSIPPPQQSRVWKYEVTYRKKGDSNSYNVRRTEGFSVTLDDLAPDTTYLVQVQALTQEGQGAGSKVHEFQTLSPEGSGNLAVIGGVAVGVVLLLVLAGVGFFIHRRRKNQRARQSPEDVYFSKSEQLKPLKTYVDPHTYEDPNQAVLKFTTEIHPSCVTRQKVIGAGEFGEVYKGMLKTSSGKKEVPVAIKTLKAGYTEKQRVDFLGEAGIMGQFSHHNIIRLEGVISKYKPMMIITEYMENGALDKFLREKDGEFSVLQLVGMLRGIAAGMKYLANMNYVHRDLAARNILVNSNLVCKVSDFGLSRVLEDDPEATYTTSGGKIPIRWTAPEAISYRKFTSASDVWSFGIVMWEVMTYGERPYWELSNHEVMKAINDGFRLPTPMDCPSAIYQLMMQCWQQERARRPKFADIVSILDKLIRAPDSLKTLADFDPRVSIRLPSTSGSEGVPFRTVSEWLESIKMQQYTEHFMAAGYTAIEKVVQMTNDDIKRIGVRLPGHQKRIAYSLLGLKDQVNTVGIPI

[5] = target: Casein kinase I isoform delta (Homo sapiens, UniProt P48730);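 further: measured as one member (CSNK1D) of a kinome panel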
Chain of Casein kinase I isoform delta (P48730 whole entry, canonical isoform): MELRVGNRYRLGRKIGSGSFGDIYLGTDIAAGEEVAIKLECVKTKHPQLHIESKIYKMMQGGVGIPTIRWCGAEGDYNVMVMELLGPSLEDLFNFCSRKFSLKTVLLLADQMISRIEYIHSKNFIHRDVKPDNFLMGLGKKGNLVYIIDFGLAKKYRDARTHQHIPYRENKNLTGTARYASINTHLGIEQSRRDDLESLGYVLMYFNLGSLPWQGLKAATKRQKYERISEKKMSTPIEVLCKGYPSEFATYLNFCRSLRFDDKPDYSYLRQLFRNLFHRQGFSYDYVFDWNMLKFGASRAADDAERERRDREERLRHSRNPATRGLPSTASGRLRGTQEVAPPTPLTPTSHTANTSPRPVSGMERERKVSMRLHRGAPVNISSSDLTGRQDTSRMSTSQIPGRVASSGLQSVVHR

[6] = target: Cyclin-dependent kinase 5 (Homo sapiens, UniProt Q00535);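 further: CDK5 measured as one member of a kinase profiling panel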
[7] = target: Mitogen-activated protein kinase kinase kinase 20 (Homo sapiens, UniProt Q9NYL2)
Chain of Mitogen-activated protein kinase kinase kinase 20 (Q9NYL2 whole entry): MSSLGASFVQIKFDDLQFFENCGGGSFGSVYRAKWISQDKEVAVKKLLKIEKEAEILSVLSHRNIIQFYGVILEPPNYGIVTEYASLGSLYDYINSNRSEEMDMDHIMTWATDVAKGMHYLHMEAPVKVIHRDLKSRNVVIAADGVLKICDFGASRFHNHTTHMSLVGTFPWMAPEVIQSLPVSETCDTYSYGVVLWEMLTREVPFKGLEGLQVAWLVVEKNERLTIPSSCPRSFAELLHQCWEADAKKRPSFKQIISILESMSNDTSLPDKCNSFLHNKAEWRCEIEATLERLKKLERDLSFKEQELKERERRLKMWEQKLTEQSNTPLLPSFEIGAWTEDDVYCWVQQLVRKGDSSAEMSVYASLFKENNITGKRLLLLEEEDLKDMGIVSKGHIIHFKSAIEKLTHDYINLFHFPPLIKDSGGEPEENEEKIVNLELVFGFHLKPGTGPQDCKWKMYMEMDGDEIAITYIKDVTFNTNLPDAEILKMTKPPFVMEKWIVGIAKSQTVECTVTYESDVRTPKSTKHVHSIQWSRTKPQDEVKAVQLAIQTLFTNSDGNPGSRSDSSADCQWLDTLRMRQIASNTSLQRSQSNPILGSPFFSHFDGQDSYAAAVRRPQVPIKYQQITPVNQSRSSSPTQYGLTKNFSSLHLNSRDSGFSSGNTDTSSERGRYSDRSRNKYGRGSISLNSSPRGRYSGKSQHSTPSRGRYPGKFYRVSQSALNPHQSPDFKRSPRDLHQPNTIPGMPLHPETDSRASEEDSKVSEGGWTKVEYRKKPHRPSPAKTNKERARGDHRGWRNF

[8] = target: Protein-tyrosine kinase 2-beta (Homo sapiens, UniProt Q14289)
[9] = target: Serine/threonine-protein kinase PAK 4 (Homo sapiens, UniProt O96013);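 further: value obtained within a kinome profiling panel in which PAK4 was one of the panel members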
[10] = target: Hepatocyte growth factor receptor (Homo sapiens, UniProt P08581);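 further: kinase panel profiling across the kinome, with MET as the panel member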
Chain of Hepatocyte growth factor receptor (P08581 whole entry): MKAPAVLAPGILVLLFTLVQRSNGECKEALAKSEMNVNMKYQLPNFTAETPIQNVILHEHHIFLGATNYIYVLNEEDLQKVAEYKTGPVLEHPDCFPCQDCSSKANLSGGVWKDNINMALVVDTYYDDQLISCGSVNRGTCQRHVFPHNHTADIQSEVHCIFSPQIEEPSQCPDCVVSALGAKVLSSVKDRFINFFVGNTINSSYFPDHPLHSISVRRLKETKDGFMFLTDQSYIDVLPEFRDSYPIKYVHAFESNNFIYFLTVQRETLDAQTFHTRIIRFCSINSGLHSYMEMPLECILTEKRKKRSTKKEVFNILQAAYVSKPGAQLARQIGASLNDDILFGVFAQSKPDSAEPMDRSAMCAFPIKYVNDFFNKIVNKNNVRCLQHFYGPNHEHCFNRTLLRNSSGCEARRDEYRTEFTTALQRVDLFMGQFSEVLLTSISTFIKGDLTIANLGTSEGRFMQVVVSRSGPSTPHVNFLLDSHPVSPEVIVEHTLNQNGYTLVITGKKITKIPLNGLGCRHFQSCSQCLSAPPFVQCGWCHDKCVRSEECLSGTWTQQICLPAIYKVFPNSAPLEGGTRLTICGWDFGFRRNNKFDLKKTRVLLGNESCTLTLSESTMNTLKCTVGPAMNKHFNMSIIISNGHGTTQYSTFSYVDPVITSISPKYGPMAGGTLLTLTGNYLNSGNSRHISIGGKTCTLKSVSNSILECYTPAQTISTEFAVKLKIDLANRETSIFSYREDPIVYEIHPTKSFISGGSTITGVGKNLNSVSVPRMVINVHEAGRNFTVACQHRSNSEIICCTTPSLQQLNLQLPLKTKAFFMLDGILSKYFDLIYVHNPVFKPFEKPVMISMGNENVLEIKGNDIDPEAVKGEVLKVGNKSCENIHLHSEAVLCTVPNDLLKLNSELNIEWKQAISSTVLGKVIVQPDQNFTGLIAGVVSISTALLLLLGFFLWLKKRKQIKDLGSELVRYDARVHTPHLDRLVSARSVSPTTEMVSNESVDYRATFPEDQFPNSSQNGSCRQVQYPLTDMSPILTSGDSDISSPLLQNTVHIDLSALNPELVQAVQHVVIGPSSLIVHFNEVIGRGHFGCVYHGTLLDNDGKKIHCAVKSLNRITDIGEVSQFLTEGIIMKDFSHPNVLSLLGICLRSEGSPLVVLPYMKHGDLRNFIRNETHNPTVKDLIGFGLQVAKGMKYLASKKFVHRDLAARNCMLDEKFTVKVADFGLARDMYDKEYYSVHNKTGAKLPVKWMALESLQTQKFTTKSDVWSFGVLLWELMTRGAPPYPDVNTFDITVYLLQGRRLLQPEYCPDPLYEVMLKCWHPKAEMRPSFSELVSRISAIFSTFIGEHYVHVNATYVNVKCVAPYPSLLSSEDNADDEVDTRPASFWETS

[11] = target: T2, Protein kinase C zeta type (Homo sapiens, UniProt Q05513);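 further: measured as one member of a broad kinase profiling panel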
T2 sequence (Q05513 whole entry): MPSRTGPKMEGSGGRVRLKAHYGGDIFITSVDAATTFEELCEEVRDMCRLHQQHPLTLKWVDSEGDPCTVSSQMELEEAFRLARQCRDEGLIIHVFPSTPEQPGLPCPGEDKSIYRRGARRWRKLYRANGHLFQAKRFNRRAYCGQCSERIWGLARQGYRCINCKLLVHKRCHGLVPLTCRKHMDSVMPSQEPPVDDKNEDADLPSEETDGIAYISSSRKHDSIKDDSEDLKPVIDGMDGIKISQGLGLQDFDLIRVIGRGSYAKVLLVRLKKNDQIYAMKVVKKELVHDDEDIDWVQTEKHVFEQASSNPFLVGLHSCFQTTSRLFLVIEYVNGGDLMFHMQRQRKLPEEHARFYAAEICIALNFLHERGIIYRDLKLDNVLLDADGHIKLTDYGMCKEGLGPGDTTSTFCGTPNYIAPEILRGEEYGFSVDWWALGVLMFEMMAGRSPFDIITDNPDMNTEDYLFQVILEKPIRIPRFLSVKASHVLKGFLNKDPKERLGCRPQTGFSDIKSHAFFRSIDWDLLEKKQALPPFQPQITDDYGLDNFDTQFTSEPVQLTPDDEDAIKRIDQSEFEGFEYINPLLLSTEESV

Aurora kinase A = Aurora kinase A (Homo sapiens, UniProt O14965);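 further: value from the Navigating the Kinome kinase panel profiling, panel entry STK6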
[12] = target: T3, Lymphokine-activated killer T-cell-originated protein kinase (Homo sapiens, UniProt Q96KB5);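 further: value comes from a kinase panel screen in which TOPK was one of the panel members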
T3 sequence (Q96KB5 whole entry): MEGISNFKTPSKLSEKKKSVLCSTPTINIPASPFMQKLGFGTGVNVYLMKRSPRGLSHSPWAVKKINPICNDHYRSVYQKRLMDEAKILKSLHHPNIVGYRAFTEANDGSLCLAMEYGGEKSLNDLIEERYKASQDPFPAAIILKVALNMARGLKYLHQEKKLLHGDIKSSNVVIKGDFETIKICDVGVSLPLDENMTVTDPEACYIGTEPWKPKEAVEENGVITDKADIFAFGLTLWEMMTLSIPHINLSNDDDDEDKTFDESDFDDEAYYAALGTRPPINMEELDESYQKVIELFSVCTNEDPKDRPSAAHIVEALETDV

[13] = target: Ribosomal protein S6 kinase alpha-3 (Homo sapiens, UniProt P51812);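 further: measured within a kinome-wide profiling panel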
Chain of Ribosomal protein S6 kinase alpha-3 (P51812 whole entry): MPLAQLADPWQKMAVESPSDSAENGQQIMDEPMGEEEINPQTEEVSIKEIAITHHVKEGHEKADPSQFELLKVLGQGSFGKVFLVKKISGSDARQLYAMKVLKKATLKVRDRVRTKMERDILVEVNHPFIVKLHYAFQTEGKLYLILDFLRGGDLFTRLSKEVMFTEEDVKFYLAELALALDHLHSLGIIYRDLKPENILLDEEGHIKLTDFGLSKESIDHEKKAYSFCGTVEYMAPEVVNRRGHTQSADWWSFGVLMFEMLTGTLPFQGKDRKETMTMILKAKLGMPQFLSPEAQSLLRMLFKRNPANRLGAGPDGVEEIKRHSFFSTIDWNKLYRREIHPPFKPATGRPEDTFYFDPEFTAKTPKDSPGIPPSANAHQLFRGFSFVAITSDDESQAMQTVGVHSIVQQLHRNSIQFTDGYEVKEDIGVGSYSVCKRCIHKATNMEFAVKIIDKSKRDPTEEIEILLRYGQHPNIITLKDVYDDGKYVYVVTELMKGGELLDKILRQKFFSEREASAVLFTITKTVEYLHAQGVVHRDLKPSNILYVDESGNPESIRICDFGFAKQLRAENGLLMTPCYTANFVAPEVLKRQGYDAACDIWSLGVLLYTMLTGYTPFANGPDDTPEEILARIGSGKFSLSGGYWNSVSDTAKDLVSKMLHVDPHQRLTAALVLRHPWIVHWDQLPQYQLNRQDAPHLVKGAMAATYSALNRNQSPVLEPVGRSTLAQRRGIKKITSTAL

Compound: CCCc1nc2c(=O)n(C)c(=O)nc-2n(C)n1
EC50 [1]: > 92.5 µM (inactive)
EC50 [2]: > 92.5 µM (inactive)
AC50 [3]: 4.6 µM (active)

IC50 [4]: 28.7 µM (active)
Compound: CC(=O)c1ccc(NC2=C(N3CCOCC3)C(=O)c3ccccc3C2=O)cc1

Ki (Ephrin type-A receptor 2): > 3.16 µM (inactive)
Ki [5]: > 7.94 µM (inactive)
Ki [6]: > 10 µM (inactive)
Ki [7]: > 7.94 µM (inactive)
Ki [8]: 0.158 µM (active)
Ki [9]: > 5.01 µM (inactive)
Ki [10]: > 3.16 µM (inactive)
Ki [11]: > 7.94 µM (inactive)
Ki (Aurora kinase A): > 3.98 µM (inactive)
Ki [13]: 7.94 µM (active)
Compound: COc1cc2ncn(-c3cc(OCc4ccccc4C(F)(F)F)c(C(N)=O)s3)c2cc1OC [GW843682X]
Ki [12]: > 10 µM (inactive)
